Experimental data as given in patent US20260335294A1, “TREATING CONGENITAL DISORDERS OF GLYCOSYLATION” (Mayo Foundation for Medical Education and Research, priority 2022, published 2026).
Marks after values point to notes of the source that are not given here.

Tests used:
PMM2-CDG patients [1] = test: Goal attainment scale (GAS) in patients on epalrestat; type: in vivo, human
Experimental: (§1) Two patients were started on epalrestat on single patient investigational new drug (IND) (P5 IRB: 19-010017; IND #145262; P6 Protocol PMM2-CDG-001/A). Epalrestat was initiated on the parents' own initiative in the third patient (P7). Two patients were in their second year of epalrestat treatment, while the third, was in the 3rd year of treatment. Physical, neurological, and biochemical examinations were performed in 3 PMM2-CDG patients at baseline, and at every three months after the start of the epalrestat treatment. Patients underwent NPCRS phenotype severity assessment and biological sampling at every visit. Epalrestat (Ono Pharmaceuticals, Osaka, Japan) was taken orally 3 times per day (TID) before meals in a divided dose, with dosage escalation throughout the treatment. The pharmacological profile of epalrestat was as described elsewhere (Ligezka et al, Ann. Neurol., 90(6):887-900 (2021)). The starting dosage in P5 and P6 was 0.8 mg/kg/day, while P7 was started on 0.5 mg/kg/day due to their young age. P7 dosage was increased to 0.8 mg/day after a month, once safety was established. Blood and urine samples were collected routinely. Urine polyols, carbohydrate deficient transferrin (CDT), anti-thrombin III (ATIII), liver enzymes (ALT, AST), and complete blood count (CBC) were performed. Modified Brief Ataxia Rating Scale was used to assess ataxia in the 2 patients (P5, P6; P7 was not eligible for the test due to age). The modified BARS scale included Archimedes spiral test, but not the abnormalities of the ocular pursuit system and the scale range was 0-54. Goal attainment scale (GAS) was administered as described per study protocol (ClinicalTrials.gov Identifier: NCT04199000). Quantification of goal attainment levels is done on a 5-point scale ranging from −2 to +2, with 0 indicating the expected level of goal attainment. Three individual goals were established by each patient (parent) at baseline and the progress was annually assessed. Goals included: walking without assistance (Goal #1 P5, P6), communicating with strangers (Goal #2 P5, P6), independent toilet training (Goal #3 P5), to be able to have a healthy and independent life (Goal #3 P6), to be able to equally play with peers (Goal #1 P7), normalization of laboratory results (liver enzymes) (Goal #2 P7), and improved balance to stand and walk (Goal #3 P7).

PMM2-CDG patients [2] = test: Carbohydrate deficient transferrin (CDT) in patients on epalrestat; type: in vivo, human; conditions: for CDT a-oligo/di-oligo ratio: C < 0.011; for CDT mono-oligo/di-oligo ratio: C < 0.06
Excerpt: The primary objective of the study was to assess the efficacy and safety of epalrestat treatment in 3 PMM2-CDG pediatric subjects prior to a planned Phase III clinical trial (Oral epalrestat therapy in Pediatric Subjects with PMM2-CDG, NCT04925960). The secondary objective was to assess the ability of epalrestat to improve clinically relevant aspects of PMM2-CDG such as increased urine polyols (sorbitol, mannitol), abnormal glycosylation (carbohydrate deficient transferrin), abnormal coagulation (ATIII=antithrombin III), impaired liver function (ALT=Alanine Transaminase, AST=Aspartate Transaminase), neurologic function (Brief Ataxia Rating Scale=BARS), severity of phenotype (Nijmegen Pediatric CDG Rating Scale=NPCRS). The ability of epalrestat to inhibit polyol production was monitored by evaluating urine polyol levels (sorbitol, mannitol), which are elevated in PMM2-CDG. Next, carbohydrate deficient transferrin, which is abnormal in PMM2-CDG, was evaluated in order to assess improvement of glycosylation following epalrestat treatment. CDT mono-oligo/dioligo ratio and a-oligo/dioligo ratio are used to evaluate glycosylation abnormalities. Transferrin normally occurs with two glycan chains (di-oligo). In the case of glycosylation abnormalities, glycan chains are missing (A-oligo transferrin has no glycan chains, mono-oligo has one glycan chain, di-oligo has two glycan chains). The higher ratio of a-oligo/di-oligo and mono-oligo/di-oligo indicate glycosylation abnormalities are present. Therefore, improvement in a-oligo/di-oligo and mono-oligo/di-oligo ratios can be used to monitor improvement or worsening of glycosylation status. Changes in the liver enzymes AST, ALT, which are frequently elevated in PMM2-CDG, were monitored both as part of a safety study and as part of monitoring clinical improvement in coagulation. Neurologic improvement was assessed by modified BARS scores in 2 patients (3rd patient was not eligible for the test due to age at the start of the trial). NPCRS was assessed at every visit to assess changes in the severity of the patients' phenotype. Additionally, the frequency of adverse events, changes in vital signs, complete blood count, and changes in BMI were monitored.
as §1, with “Quantification of goal attainment levels is done on a 5-point scale ranging from −2 to +2, with 0 indicating the expected level of goal attainment. Three individual goals were established by each patient (parent) at baseline and the progress was annually assessed. Goals included: walking without assistance (Goal #1 P5, P6), communicating with strangers (Goal #2 P5, P6), independent toilet training (Goal #3 P5), to be able to have a healthy and independent life (Goal #3 P6), to be able to equally play with peers (Goal #1 P7), normalization of laboratory results (liver enzymes) (Goal #2 P7), and improved balance to stand and walk (Goal #3 P7).” left out

[3] = P7, Baseline column: first available results 3 months after starting treatment, 0.5, 0.8 mg/kg day

CC(/C=C1\SC(=S)N(CC(=O)O)C1=O)=C\c1ccccc1 [epalrestat]
Goal attainment scale, Goal 2 (scale −2 to +2) (PMM2-CDG patients [1]; P5, 12 months, 1.5 mg/kg day, communicating with strangers, baseline −2): −1
Goal attainment scale, Goal 3 (scale −2 to +2) (PMM2-CDG patients [1]; P5, 12 months, 1.5 mg/kg day, independent toilet training, baseline −2): −2
Goal attainment scale, Goal 1 (scale −2 to +2) (PMM2-CDG patients [1]; P5, 12 months, 1.5 mg/kg day, walking without assistance, baseline −2): −1
Goal attainment scale, Goal 2 (scale −2 to +2) (PMM2-CDG patients [1]; P5, 24 months, 2 mg/kg day, communicating with strangers, baseline −2): −1
Goal attainment scale, Goal 3 (scale −2 to +2) (PMM2-CDG patients [1]; P5, 24 months, 2 mg/kg day, independent toilet training, baseline −2): −2
Goal attainment scale, Goal 1 (scale −2 to +2) (PMM2-CDG patients [1]; P5, 24 months, 2 mg/kg day, walking without assistance, baseline −2): −1
Goal attainment scale, Goal 2 (scale −2 to +2) (PMM2-CDG patients [1]; P6, 12 months, 1.5 mg/kg day, communicating with strangers, baseline −1): −1
Goal attainment scale, Goal 3 (scale −2 to +2) (PMM2-CDG patients [1]; P6, 12 months, 1.5 mg/kg day, healthy and independent life, baseline −2): −2
Goal attainment scale, Goal 1 (scale −2 to +2) (PMM2-CDG patients [1]; P6, 12 months, 1.5 mg/kg day, walking without assistance, baseline −2): −1
Goal attainment scale, Goal 1 (scale −2 to +2) (PMM2-CDG patients [1]; P7, 12 months, 1.5 mg/kg day, equally play with peers, baseline −2): −2
Goal attainment scale, Goal 3 (scale −2 to +2) (PMM2-CDG patients [1]; P7, 12 months, 1.5 mg/kg day, improved balance to stand and walk, baseline −2): −1
Goal attainment scale, Goal 2 (scale −2 to +2) (PMM2-CDG patients [1]; P7, 12 months, 1.5 mg/kg day, normalization of laboratory results (liver enzymes), baseline −2): −1
clinical improvement and quality of life (GAS, self-reported) (PMM2-CDG patients [1]; all patients, words): all patients self-reported clinical improvement and quality of life improvement
CDT a-oligo/di-oligo ratio (PMM2-CDG patients [2]; P5, 12 months, 1.5 mg/kg day, baseline 0.005): 0.003
CDT mono-oligo/di-oligo ratio (PMM2-CDG patients [2]; P5, 12 months, 1.5 mg/kg day, baseline 0.09): 0.06
CDT a-oligo/di-oligo ratio (PMM2-CDG patients [2]; P5, 24 months, 2 mg/kg day, baseline 0.005): 0.010
CDT mono-oligo/di-oligo ratio (PMM2-CDG patients [2]; P5, 24 months, 2 mg/kg day, baseline 0.09): 0.09
CDT a-oligo/di-oligo ratio (PMM2-CDG patients [2]; P5, 28 months, 3 mg/kg day, baseline 0.005): 0.08
CDT mono-oligo/di-oligo ratio (PMM2-CDG patients [2]; P5, 28 months, 3 mg/kg day, baseline 0.09): 0.07
CDT (PMM2-CDG patients [2]; P5, words): Normalization of CDT
CDT a-oligo/di-oligo ratio (PMM2-CDG patients [2]; P6, 12 months, 1.5 mg/kg day, baseline 0.196): 0.111
CDT mono-oligo/di-oligo ratio (PMM2-CDG patients [2]; P6, 12 months, 1.5 mg/kg day, baseline 0.69): 0.43
CDT a-oligo/di-oligo ratio (PMM2-CDG patients [2]; P6, 18 months, 3 mg/kg day, baseline 0.196): 0.105
CDT mono-oligo/di-oligo ratio (PMM2-CDG patients [2]; P6, 18 months, 3 mg/kg day, baseline 0.69): 0.47
CDT (PMM2-CDG patients [2]; P6, 18 months, escalating doses, words): significant improvement in CDT with a steady trend towards normalization
CDT a-oligo/di-oligo ratio (PMM2-CDG patients [2]; P7, 12 months, 1.5 mg/kg day): 1.033
CDT mono-oligo/di-oligo ratio (PMM2-CDG patients [2]; P7, 12 months, 1.5 mg/kg day): 1.58
CDT a-oligo/di-oligo ratio (PMM2-CDG patients [2]; [3]): 0.919#
CDT mono-oligo/di-oligo ratio (PMM2-CDG patients [2]; [3]): 1.60#
CDT (PMM2-CDG patients [2]; P7, one-year mark, words): slight improvement
CDT (PMM2-CDG patients [2]; overall, words): improvement
